How the values were obtained:
[1] = target: T1, endogenous IKZF1 protein in NB4 cells (Homo sapiens, UniProt Q13422); test: Endogenous Ikaros 1 (IKZF1) degradation assay (SDS-PAGE); type: cell-based; conditions: 1 μM and 10 μM, 20 h of treatment
T1 construct: the endogenous IKZF1 protein; endogenous in cells; host or cells: NB4

[2] = target: T2, endogenous SALL4 protein in Kelly cells (Homo sapiens, UniProt Q9UJQ4); test: Endogenous SALL4 degradation assay (SDS-PAGE); type: cell-based; conditions: 10 μM, 20 h of treatment
T2 construct: the endogenous SALL4 protein; endogenous in cells; host or cells: Kelly

[3] = target: T3, cereblon (CRBN)—DNA damage protein 1 (DDB1) complex (Homo sapiens, UniProt Q96SW2); test: Cereblon HTRF binding assay
T3 construct: encoding amino acid residues 1 to 442 (Uniprot Q96SW2); hexahistidine (N); thrombin cleavage site (N); made in house; host or cells: Sf9 insect cells (baculovirus co-infection)
Procedure, shortened: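 Biotinylated His-tagged CRBN-DDB1 (0.2 nM, baculovirus-expressed) was combined with 0.2 nM terbium cryptate streptavidin and 2 nM Cy5-lenalidomide probe in 50 mM Tris-HCl pH 7.5, 100 mM NaCl, 1 mM TCEP, 500 μM EDTA, 0.01% Pluronic F127 for 2 h at r.t. HTRF ratio was normalized to plate controls. IC50 came from a Hill fit, given as mean of one or more experiments.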

[4] = target: T4, BRD4 tagged to a HiBiT tag in HEK 293 cells (Homo sapiens, UniProt O60885); test: HiBiT degradation assay; type: cell-based; conditions: for DC50: BRD4 degradation, HiBiT-BRD4 HEK 293 cells, 18 h; for Dmax: HEK293
T4 construct: at the N-terminus of endogenous BRD4; endogenous in cells
Protocol: Determination of PROTAC potency was determined in HEK 293 cells expressing BRD4 tagged to a HiBiT tag. To generate those cells, HiBiT tag (aminoacid sequence: […]) was inserted, via CRISPR CAS9 knock-in, at the N-terminus of endogenous BRD4.
To measure success of knock-in the cells were then tested for their level of luminescence. Finally a stable pool was generated from them. In a typical experiment, 14×10^3 cells are seed in the wells of a 384 well plate (white flat bottom, tissue culture ready, corning 781080) in 40 μL of culture medium (DMEM, 10% FBS and 2 mM Gln). Immediately after seeding, PROTAC compounds, diluted in DMSO solution, are added to the wells via ECHO 555 acoustic dispenser at the appropriate concentration. DMSO is used as a not active control and as normalization. In each plate a series of compounds of known DC50 are included as quality control. The 384 well plate is placed in an incubator at 37° C. and 5% CO2 for 18 h. At the end of the incubation period plates are removed from the incubator and the medium is replaced with 10 μL of PBS and 10 μL of complete NanoGlo HiBiT solution (Promega N3040, consisting of 9.7 μL of Lysis buffer, with 0.1 μL of LgBiT protein and 0.2 μL of nanoluciferase substrate). After 15 minutes of incubation at r.t., the luciferase activity of the plate is recorded in a luminometer. dBET6 (MCE® Cat. No.: HY-112588) was used for normalization when calculating Dmax.

[5] = target: T5, human BRD4 (amino acid residues 42 to 169) (Homo sapiens, UniProt O60885); test: BRD4 surface plasmon resonance (SPR) assay; type: binding; conditions: biotinylated BRD4, 25° C., read-out: BRD4 Affinity Kd
T5 construct: encoding amino acid residues 42 to 169 (Uniprot 060885) of human BRD4; hexahistidine (N, cleaved yes); TEV cleavage site (N, cleaved yes); made in house; host or cells: E. coli BL21 Gold (DE3)

T2 sequence (Q9UJQ4 whole entry): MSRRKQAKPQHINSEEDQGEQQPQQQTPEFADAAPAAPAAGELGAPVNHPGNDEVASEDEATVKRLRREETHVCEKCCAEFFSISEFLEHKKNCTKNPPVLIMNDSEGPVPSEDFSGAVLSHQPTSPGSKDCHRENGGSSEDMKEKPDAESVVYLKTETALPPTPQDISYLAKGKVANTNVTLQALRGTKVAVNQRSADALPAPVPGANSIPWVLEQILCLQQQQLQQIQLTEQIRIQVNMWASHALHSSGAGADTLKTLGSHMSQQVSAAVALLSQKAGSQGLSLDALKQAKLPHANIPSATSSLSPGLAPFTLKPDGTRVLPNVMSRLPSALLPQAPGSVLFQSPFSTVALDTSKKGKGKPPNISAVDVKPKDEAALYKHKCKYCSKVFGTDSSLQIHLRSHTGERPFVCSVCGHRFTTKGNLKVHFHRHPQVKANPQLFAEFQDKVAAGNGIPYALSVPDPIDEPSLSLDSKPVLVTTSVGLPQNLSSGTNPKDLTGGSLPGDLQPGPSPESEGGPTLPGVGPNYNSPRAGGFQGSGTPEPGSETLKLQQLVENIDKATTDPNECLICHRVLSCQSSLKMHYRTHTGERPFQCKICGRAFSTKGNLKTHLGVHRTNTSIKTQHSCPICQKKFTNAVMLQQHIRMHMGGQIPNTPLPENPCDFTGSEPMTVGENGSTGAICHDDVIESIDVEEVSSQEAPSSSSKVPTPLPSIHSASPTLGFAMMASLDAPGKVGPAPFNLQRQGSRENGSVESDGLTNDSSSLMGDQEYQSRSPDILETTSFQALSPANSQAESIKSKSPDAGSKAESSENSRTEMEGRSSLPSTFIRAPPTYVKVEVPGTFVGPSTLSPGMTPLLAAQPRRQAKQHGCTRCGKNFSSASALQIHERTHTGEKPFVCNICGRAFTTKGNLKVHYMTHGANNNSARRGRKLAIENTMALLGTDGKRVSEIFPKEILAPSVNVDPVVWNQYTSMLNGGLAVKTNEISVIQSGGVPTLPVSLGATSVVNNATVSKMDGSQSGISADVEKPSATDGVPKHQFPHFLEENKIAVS
T1 sequence (Q13422 whole entry): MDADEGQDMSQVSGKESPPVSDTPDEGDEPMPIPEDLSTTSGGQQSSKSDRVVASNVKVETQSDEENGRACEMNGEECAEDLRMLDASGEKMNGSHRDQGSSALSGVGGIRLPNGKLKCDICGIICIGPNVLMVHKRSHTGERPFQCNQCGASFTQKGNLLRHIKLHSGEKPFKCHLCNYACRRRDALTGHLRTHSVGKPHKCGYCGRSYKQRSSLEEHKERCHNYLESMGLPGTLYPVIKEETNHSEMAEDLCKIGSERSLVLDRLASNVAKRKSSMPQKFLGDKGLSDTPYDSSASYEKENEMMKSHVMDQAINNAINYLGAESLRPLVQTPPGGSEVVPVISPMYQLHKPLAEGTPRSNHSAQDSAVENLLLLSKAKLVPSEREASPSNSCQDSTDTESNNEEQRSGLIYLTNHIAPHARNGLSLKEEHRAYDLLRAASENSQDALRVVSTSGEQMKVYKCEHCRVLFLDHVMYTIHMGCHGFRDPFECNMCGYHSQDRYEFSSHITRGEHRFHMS
T3 sequence (Q96SW2 with tags, fused parts or gaps): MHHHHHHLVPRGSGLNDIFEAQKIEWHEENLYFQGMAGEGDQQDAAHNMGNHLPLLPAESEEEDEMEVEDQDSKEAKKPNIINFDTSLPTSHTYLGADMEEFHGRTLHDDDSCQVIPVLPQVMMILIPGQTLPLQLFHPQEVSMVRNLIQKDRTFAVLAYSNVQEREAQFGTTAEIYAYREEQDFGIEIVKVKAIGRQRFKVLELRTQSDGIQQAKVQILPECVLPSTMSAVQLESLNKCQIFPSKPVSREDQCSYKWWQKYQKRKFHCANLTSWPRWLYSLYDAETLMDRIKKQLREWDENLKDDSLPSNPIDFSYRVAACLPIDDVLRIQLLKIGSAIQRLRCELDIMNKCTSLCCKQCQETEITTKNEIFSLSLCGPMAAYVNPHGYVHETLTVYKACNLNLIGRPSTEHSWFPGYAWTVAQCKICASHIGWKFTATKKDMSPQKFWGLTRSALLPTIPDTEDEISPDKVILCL

SMILES	IC50 [3] [nM]	also measured
O=C1CCN(c2ccc3cc[nH]c3c2)C(=O)N1 [Example 55, 1-(1H-Indol-6-yl)dihydropyrimidine-2,4 (1H,3H)-dione]	220	IKZF1 degradation [1]: no observable/meaningful IKZF1 degradation; SALL4 degradation [2]: no observable/meaningful SALL4 degradation
O=C1CCN(c2ccc3cnoc3c2)C(=O)N1 [Example 39, 1-(Benzo[d]isoxazol-6-yl)dihydropyrimidine-2,4 (1H,3H)-dione]	82	IKZF1 degradation [1]: no observable/meaningful IKZF1 degradation
Cc1sc2c(c1C)C(c1ccc(Cl)cc1)=N[C@@H](CC(=O)NCCNC(=O)Cc1c[nH]c3cc(N4CCC(=O)NC4=O)ccc13)c1nnc(C)n1-2 [Example 127, (S)-2-(4-(4-Chlorophenyl)-2,3,9-trimethyl-6H-thieno[3,2-f][1,2,4]triazolo[4,3-a][1,4]-diazepin-6-yl)-N-(2-(2-(6-(2,4-dioxotetrahydropyrimidin-1 (2H)-yl)-1H-indol-3-yl)acetamido)ethyl)-acetamide]	–	DC50 [4]: 198 nM; Dmax [4]: 97.2%; Kd [5]: 13 nM
O=C1CCN(c2cncc3[nH]ccc23)C(=O)N1 [Example 17, 1-(1H-Pyrrolo[2,3-c]pyridin-4-yl)dihydropyrimidine-2,4 (1H,3H)-dione]	206	IKZF1 degradation [1]: no observable/meaningful IKZF1 degradation
Nc1cccc2c1CN(C1CCC(=O)NC1=O)C2=O (stereo not shown) [lenalidomide, reference compound]	–	IKZF1 degradation [1]: degradation of IKZF1 to an undetected level
O=C1CCN(c2cnc3cc[nH]c3c2)C(=O)N1 [Example 40, 1-(1H-Pyrrolo[3,2-b]pyridin-6-yl)dihydropyrimidine-2,4 (1H,3H)-dione]	186	IKZF1 degradation [1]: no observable/meaningful IKZF1 degradation
Cn1ccc2ccc(N3CCC(=O)NC3=O)cc21 [Example 59, 1-(1-Methyl-1H-indol-6-yl)dihydropyrimidine-2,4 (1H,3H)-dione]	329	SALL4 degradation [2]: no observable/meaningful SALL4 degradation
Cc1sc2c(c1C)C(c1ccc(Cl)cc1)=N[C@@H](CC(=O)NCCOCCOCCNC(=O)Cc1c[nH]c3cc(N4CCC(=O)NC4=O)ccc13)c1nnc(C)n1-2 [Example 128, (S)-2-(4-(4-Chlorophenyl)-2,3,9-trimethyl-6H-thieno[3,2-f][1,2,4]triazolo[4,3-a][1,4]-diazepin-6-yl)-N-(2-(2-(2-(2-(6-(2,4-dioxotetrahydropyrimidin-1 (2H)-yl)-1H-indol-3-yl)acetamido)-ethoxy)ethoxy)ethyl)acetamide]	–	DC50 [4]: 1140 nM; Dmax [4]: 73.1%; Kd [5]: 19 nM
Cc1sc2c(c1C)C(c1ccc(Cl)cc1)=N[C@@H](CC(=O)NCCOCCOCCOCCOCCOCCOCCNC(=O)Cc1c[nH]c3cc(N4CCC(=O)NC4=O)ccc13)c1nnc(C)n1-2 [Example 129, (S)-2-(4-(4-Chlorophenyl)-2,3,9-trimethyl-6H-thieno[3,2-f][1,2,4]triazolo[4,3-a][1,4]-diazepin-6-yl)-N-(1-(6-(2,4-dioxotetrahydropyrimidin-1 (2H)-yl)-1H-indol-3-yl)-2-oxo-6,9,12,15,18,21-hexaoxa-3-azatricosan-23-yl)acetamide]	–	DC50 [4]: 970 nM; Dmax [4]: 111%; Kd [5]: 30 nM
N#Cc1cc(N2CCC(=O)NC2=O)cc2[nH]ccc12 [Example 134, 6-(2,4-Dioxotetrahydropyrimidin-1 (2H)-yl)-1H-indole-4-carbonitrile]	1660	–
O=C1CCN(c2ccc3c(c2)NCC3)C(=O)N1 [Example 22, 1-(Indolin-6-yl)dihydropyrimidine-2,4 (1H,3H)-dione]	487	–
O=C1CCN(c2ccc3sccc3c2)C(=O)N1 [Example 130, 1-(Benzo[b]thiophen-5-yl)dihydropyrimidine-2,4 (1H,3H)-dione]	706	–
COc1c(N2CCC(=O)NC2=O)ccc2cc[nH]c12 [Example 62, 1-(7-Methoxy-1H-indol-6-yl)dihydropyrimidine-2,4 (1H,3H)-dione]	2140	–
CN(C)c1cc(N2CCC(=O)NC2=O)cc2[nH]ccc12 [Example 133, 1-(4-(Dimethylamino)-1H-indol-6-yl)dihydropyrimidine-2,4 (1H,3H)-dione]	2820	–
O=C1CCN(c2cc(Cl)c3cc[nH]c3c2)C(=O)N1 [Example 53, 1-(4-Chloro-1H-indol-6-yl)dihydropyrimidine-2,4 (1H,3H)-dione]	244	–
O=C1CCN(c2ccc3ncoc3c2)C(=O)N1 [Example 5, 1-(Benzo[d]oxazol-6-yl)dihydropyrimidine-2,4 (1H,3H)-dione]	6740	–
O=C1CCC(N2C(=O)c3ccccc3C2=O)C(=O)N1 (stereo not shown) [thalidomide, reference compound]	–	SALL4 degradation [2]: degradation of SALL4 to an undetected level
O=C1CCN(c2cccc3[nH]c(C4CCNCC4)cc23)C(=O)N1 [Example 86, 1-(2-(Piperidin-4-yl)-1H-indol-4-yl)dihydropyrimidine-2,4 (1H,3H)-dione]	291	–
O=C1CCN(c2ccc3nc[nH]c3c2)C(=O)N1 [Example 41, 1-(1H-Benzo[d]imidazol-6-yl)dihydropyrimidine-2,4 (1H,311)-dione]	1170	–
CN1CCC(c2nc3ccc(N4CCC(=O)NC4=O)cc3o2)CC1 [Example 97, 1-(2-(1-Methylpiperidin-4-yl)benzo[d]oxazol-6-yl)dihydropyrimidine-2,4 (1H,3H)-dione]	2420	–
O=C1CCN(c2cc(N3CCNCC3)cc3[nH]ccc23)C(=O)N1 [Example 91, 1-(6-(Piperazin-1-yl)-1H-indol-4-yl)dihydropyrimidine-2,4 (1H,3H)-dione]	762	–
O=C1CCN(c2ccc3[nH]cc(N4CCNCC4)c3c2)C(=O)N1 [Example 77, 1-(3-(Piperazin-1-yl)-1H-indol-5-yl)dihydropyrimidine-2,4 (1H,3H)-dione]	562	–
Cc1cn(-c2ccc3cc[nH]c3c2)c(=O)[nH]c1=O [Example 15, 1-(1H-Indol-6-yl)-5-methylpyrimidine-2,4 (1H,3H)-dione]	10600	–
O=C1CCN(c2ccc3ccnn3c2)C(=O)N1 [Example 3, 1-(Pyrazolo[1,5-a]pyridin-6-yl)dihydropyrimidine-2,4 (1H,3H)-dione]	3280	–
O=C1CCN(c2ccc3nn(C4CCNCC4)cc3c2)C(=O)N1 [Example 107, 1-(2-(Piperidin-4-yl)-2H-indazol-5-yl)dihydropyrimidine-2,4 (1H,3H)-dione]	3780	–
CN1CCCc2ccc(N3CCC(=O)NC3=O)cc21 [Example 33, 1-(1-Methyl-1,2,3,4-tetrahydroquinolin-7-yl)dihydropyrimidine-2,4 (1H,3H)-dione]	762	IKZF1 degradation [1]: no observable/meaningful IKZF1 degradation; SALL4 degradation [2]: no observable/meaningful SALL4 degradation

— patent US20230374007A1, “COMPOUNDS AND THEIR USE IN TREATING CANCER” (AstraZeneca AB, priority 2020, published 2023)
